Measured values from EP0323416A2, “Phenylbenzylidene derivatives of 3-aminopropanesulfonic acid having anticonvulsant activity and pharmaceutical compositions containing same for the therapeutical treatment of epilepsy” (Sigma-Tau Industrie Farmaceutiche Riunite S.p.A., priority 1987, dated 1989).
Marks after values point to notes of the source that are not given here.

Assays:
[1] = system: picrotoxin-induced convulsions; assay: Picrotoxin-induced convulsions test in mice; assay type: in vivo, male albino Swiss (Charles River) mice
Method: (§1) The doses of cardiazol, strychinine, bicuculline and picrotoxin (100 mg/10 ml/kg i.p., 0.73 mg/10 ml/kg s.c., 2.38 mg/10 ml/kg s.c. and 4.42 mg/10 ml/kg s.c. respectively) were chosen in such a way as to provoke death of 50% of the control animals.
(§2) The tests were carried out in male albino Swiss (Charles River) mice weighing 22-24 g which had been kept fasting for 18 hours.
(§3) 100/0 gum arabic suspensions of the compounds under examination were orally administered 60 minutes before the convulsant agent administration.
(§4) As reference substance, 3-APS (200-400-800 mg/10 ml/kg i.p.) was used.

[2] = system: cardiazol-induced convulsions; assay: Cardiazol-induced convulsions test in mice; assay type: in vivo, male albino Swiss (Charles River) mice
Method: as §1, §2, §3, §4

[3] = system: male albino Swiss mice; assay: Tolerability test, oral; assay type: in vivo; conditions: suspension in 10% gum arabic, dose of 3 g/kg, mice fasting for 18 hours
Method: The tolerability test was carried out on male albino Swiss mice weighing 22-24 g. The animals, which had been kept fasting for 18 hours, were orally administered a suspension in 10% gum arabic of the compounds ST 505 and ST 512.

[4] = system: auricular electroshock; assay: Auricular electroshock (maximal electroshock death); assay type: in vivo, Male albino Swiss mice; conditions: oral in gum arabic 60 minutes before the electroshock, 10 mice
Method: Male albino Swiss mice weighing 22-24 g were used in this test. The electroshock conditions were the shock duration: 3 seconds; frequence: 100; pulse amplitude: 0.6 milliseconds, current intensity: 40 milliamperes. The compounds ST 505 and ST 512 suspended in gum arabic were orally administered 60 minutes before the electroshock.
The tests results which illustrate the number of animal preserved from death provoked by maximal electroshock are shown in the following Table 4.

[5] = system: bicuculline-induced convulsions; assay: Bicuculline-induced convulsions test in mice; assay type: in vivo, male albino Swiss (Charles River) mice
Method: as §1, §2, §3, §4

[6] = system: strychnine-induced convulsions; assay: Strychnine-induced convulsions test in mice; assay type: in vivo, male albino Swiss (Charles River) mice
Method: as §1, §2, §3, §4

[7] = oral, 100 mg/kg eq. 3 APS, 60 minutes before convulsant, mice (Table 2)
[8] = oral, 200 mg/kg eq. 3 APS, 60 minutes before convulsant, mice (Table 2)
[9] = 400 mg/10 ml/kg i.p., mice, versus control
[10] = 200, 400 and 800 mg/10 ml/kg i.p., mice

NS(=O)(=O)CCCN=C(c1ccccc1)c1ccccc1O [ST 512, 3-[(a-phenyl)-2-hydroxybenzylidene] amino propanesulfonamide]
Picrotoxin % Death rate [1, 7]: 40%
Picrotoxin Strong % Conv. [1, 7]: 100%
Picrotoxin % Death rate [1, 8]: 50%
Picrotoxin Strong % Conv. [1, 8]: 100%
Cardiazol % Death rate [2, 7]: 50%
Cardiazol Strong % Conv. [2, 7]: 100%
Cardiazol % Death rate [2, 8]: 60%
Cardiazol Strong % Conv. [2, 8]: 100%
reduction of cardiazol-induced death rate ([2]; oral, dose equimolar to 100 mg/10ml/kg of 3-APS, mice): 20%
reduction of cardiazol-induced death rate ([2]; oral, dose equimolar to 200 mg/10ml/kg of 3-APS, mice): 10%
tolerability [3]: well tolerated
death rate ([4]; dose 200 (unit not given)): 3/10
death rate ([4]; dose 400 (unit not given)): 4/10
Bicuculline % Death rate [5, 7]: 100%
Bicuculline Strong % Conv. [5, 7]: 90%
Bicuculline % Death rate [5, 8]: 100%
Bicuculline Strong % Conv. [5, 8]: 100%
Strychnine % Death rate [6, 7]: 80%
Strychnine Strong % Conv. [6, 7]: 90%
Strychnine % Death rate [6, 8]: 90%
Strychnine Strong % Conv. [6, 8]: 80%

NCCCS(=O)(=O)O [3-APS, 3-aminopropanesulfonic acid]
Picrotoxin % Death rate ([1]; 200 mg/kg i.p., mice): 20%
Picrotoxin Strong % Conv. ([1]; 200 mg/kg i.p., mice): 100%
picrotoxin-induced first convulsion latency time [1, 9]: significantly increased
Picrotoxin % Death rate ([1]; 400 mg/kg i.p., mice): 30%
Picrotoxin Strong % Conv. ([1]; 400 mg/kg i.p., mice): 100%
Picrotoxin % Death rate ([1]; 800 mg/kg i.p., mice): 70%
Picrotoxin Strong % Conv. ([1]; 800 mg/kg i.p., mice): 30%
picrotoxin-induced death [1, 10]: did not preserve animals
Cardiazol % Death rate ([2]; 200 mg/kg i.p., mice): 50%
Cardiazol Strong % Conv. ([2]; 200 mg/kg i.p., mice): 100%
Cardiazol % Death rate ([2]; 400 mg/kg i.p., mice): 90%
Cardiazol Strong % Conv. ([2]; 400 mg/kg i.p., mice): 100%
Cardiazol % Death rate ([2]; 800 mg/kg i.p., mice): 60%
Cardiazol Strong % Conv. ([2]; 800 mg/kg i.p., mice): 100%
cardiazol-induced death [2, 10]: did not preserve animals
Bicuculline % Death rate ([5]; 200 mg/kg i.p., mice): 100%
Bicuculline Strong % Conv. ([5]; 200 mg/kg i.p., mice): 100%
latency time of bicuculline-induced death [5, 9]: significantly increased
Bicuculline % Death rate ([5]; 400 mg/kg i.p., mice): 75%
Bicuculline Strong % Conv. ([5]; 400 mg/kg i.p., mice, 8 animals per group): 100* %
Bicuculline % Death rate ([5]; 800 mg/kg i.p., mice): 40%
Bicuculline Strong % Conv. ([5]; 800 mg/kg i.p., mice): 70%
bicuculline-induced first convulsion latency time ([5]; 800 mg/kg i.p., mice, versus control): significantly increased
bicuculline-induced death [5, 10]: did not preserve animals
Strychnine % Death rate ([6]; 200 mg/kg i.p., mice): 90%
Strychnine Strong % Conv. ([6]; 200 mg/kg i.p., mice): 100%
Strychnine % Death rate ([6]; 400 mg/kg i.p., mice): 100%
Strychnine Strong % Conv. ([6]; 400 mg/kg i.p., mice): 100%
Strychnine % Death rate ([6]; 800 mg/kg i.p., mice): 90%
Strychnine Strong % Conv. ([6]; 800 mg/kg i.p., mice): 100%
strychnine-induced death [6, 10]: did not preserve animals
